Experimental data from patent US10287641B2, “Lactobacillus apinorum and Lactobacillus mellifer from honeybees in medical, food and feed applications” (CONCELLAE AB, priority 2014, dated 2019).

Tested on: clinical isolates of pathogenic wound bacteria and yeast
Test: Dual culture overlay assays, whole pathogen panel and antibiotic controls
Type: cell-based
Conditions: antibiotic 30 μg; pathogen of each column not given
Protocol: Used pathogens (Table 2) were cultivated in Nutrient broth (Oxoid) at 37° C. during 24 hours prior to test in the antagonism assays.
Dual Culture Overlay Assay Antimicrobial activity was measured by using dual culture overlay assay. The Lactobacillus apinorum and Lactobacillus mellifer strains (Table 2) were put into a filter disk and placed onto supplemented MRS agar plates followed by overnight incubation at 35° C.

| Structure (SMILES) | diameter of the inhibition zone, antibiotic control |
| --- | --- |
| CO/N=C(\C(=O)N[C@@H]1C(=O)N2C(C(=O)O)=C(COC(N)=O)CS[C@H]12)c1ccco1 [Cx, Cefuroxime sodium] | 28 millimetres |
| O=C(N[C@H](CO)[C@H](O)c1ccc([N+](=O)[O-])cc1)C(Cl)Cl [Cl, Chloramphenicol] | ^S19 millimetres |
